Assay results: patent US20170349532A1, “CATIONIC LIPID” (Kyowa Hakko Kirin Co., Ltd., priority 2011, published 2017)

Key:
[1] = test system: CKAP5 mRNA in MIA PaCa-2 subcutaneous tumor; test: Test Example 3: in vivo mRNA knockdown evaluation in MIA PaCa-2 xenograft; set-up: species or system SCID mouse; conditions: Example 122 preparation with CKAP5 siRNA; 48 hours after intravenous administration, 10 mg/kg siRNA, MIAPaCa-2 xenograft mouse
Description: The preparations obtained in Example 122 and 123 are subjected to an in vivo mRNA knockdown evaluation test in the following manner.
MIA PaCa-2 that is a cell line derived from human pancreas cancer is received from the JCRB Cell Bank and cultivated with high glucose-containing DMEM (manufactured by GIBCO, 11995-073) containing a 10% inactivated fetal calf serum (manufactured by GIBCO) and 1 vol % penicillin-streptomycin (manufactured by GIBCO, 26253-84) under conditions at 37° C. and 5% CO2. […] Before the administration and 48 hours after the administration, the weight of the mouse is measured. […]
With respect to the obtained tumor sample, 1 mL of a Trizol reagent (manufactured by Invitrogen, 15596-018) and zirconia beads of 5 mm are added to a 2-mL round bottom tube containing the sample charged therein, and the contents are pulverized by Tissue lyser II (manufactured by QIAGEN) under conditions of 1/25 freq, 1.5 minutes×2 times. […] A concentration of the extracted RNA is measured by a trace absorption photometer Dropsense96 (Trinean), and RNA corresponding to from 200 to 1,000 ng is subjected to reverse transfer with a Transcriptor (manufactured by Roche, 4897030). […] An mRNA amount of the specimen is calculated as a relative proportion when the mRNA amount of CKAP5 mRNA was defined as 1. […]

[2] = Average particle diameter of preparation (Zetasizer Nano ZS); type: physicochemical; conditions: for average particle diameter of the complex between the cationic lipis and the nucleic acid in the preparation: Comparative Examples 1 to 8, prepared as Example 118 with apo-b siRNA
Outline: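 Lipid nanoparticles formed by mixing cationic lipid/PEG-DMPE Na/DSPC/cholesterol (8.947/1.059/5.708/13.697 mmol/L in 90% ethanol, 37 °C) with apo-b siRNA in Tris-EDTA/citrate buffer pH 5.0, then diluted with citrate/NaCl pH 6.0 and DPBS to 10 μM siRNA. Mean complex diameter measured by dynamic light scattering.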

SMILES	amount of CKAP mRNA in tumor, relative proportion [1]	in vivo mRNA knockdown rate [1]	Particle diameter of Preparetion ([2]; average particle diameter of cationic lipid/nucleic acid complex, Example 118 preparation: compound/PEG-DMPE Na/DSPC/cholesterol with apo-b siRNA)	average particle diameter of the complex between the cationic lipis and the nucleic acid in the preparation [2]
CCCCC/C=C\C/C=C\CCCCCCCC(=O)OC[C@@H]1CN(C)C[C@H]1COC(=O)CCCCCCC/C=C\C/C=C\CCCCC (relative stereo) [Compound 110, trans-1-Methyl-3,4-bis(((9Z,12Z)-octadec-9,12-dienoyloxy)methyl)pyrrolidine]	0.28	72%	131.6 nm	–
CCCCCCCC/C=C\CCCCCCCC(=O)OCCN(C)CCOC(=O)CCCCCCC/C=C\CCCCCCCC [Compound A-6, N-Methyl-N,N-bis(2-((Z)-1-oxooctadec-9-enyloxy)ethyl)amine, reference compound]	–	–	–	139.5 nm
CCCCCCCC/C=C\CCCCCCCCO[C@@H]1CN(Cc2ccccc2)C[C@H]1OCCCCCCCC/C=C\CCCCCCCC [Compound VI-4, (3R,4R)-1-Benzyl-3,4-bis((Z)-octadec-9-enyloxy)pyrrolidine, reference compound]	–	–	–	157.8 nm
